Reference: patent publication US10435388B2, “Selective inhibitors of clinically important mutants of the EGFR tyrosine kinase” (CS PHARMATECH LIMITED, priority 2016, dated 2019)

Columns and labels:
PC9 cells (SM) = assay: PC-9 growth inhibition assay (cell proliferation), Method B; type: cell-based, human; conditions: cellular proliferation, several runs
Procedure: (§1) Cell Proliferation Assays—Method B
(§2) Test compounds were dissolved in DMSO at 30 mM.
(§3) The final concentration was 1,000 cells/well. Add medium only as low control. […] 5% CO2 incubator for 72 hours.
(§4) After 72 hours incubation, remove the plates from incubator and equilibrate at room temperature for 15 minutes. Incubate the CellTiter Glo reagents (Promega, G9243) at 37° C. before the experiment. The buffer was equilibrated to room temperature and used to dissolve the substrate. To determine the cell viability, add 40 μL of CellTiter-Glo reagent into each well to be detected (at 1:1 to culture medium). Then the place the plates at room temperature for 30 min followed by read on EnSpire (PerkinElmer).
(§5) For estimation of IC50, the luminescence readout are transformed to % Inhibition by applying the following equation: The IC50 was then
(§6) [formula] calculated by fitting in XLFit to a four parameters logistic curve.
PC-9 Growth Inhibition Assay (Cell Proliferation).
The inhibition assay of PC-9 cells was conducted in the same manner as described above for H1975 cells.

H1975 cells (DM) = assay: H1975 inhibition assay (cell proliferation), Method B; type: cell-based; conditions: cellular proliferation, several runs
Procedure: as §1
H1975 Inhibition Assay (Cell Proliferation).
as §2, §3, §4, §5, §6

A431 cells (WT) = assay: A431 inhibition assay (cell proliferation), Method B; type: cell-based, human; conditions: Homo sapiens, A-431, 72 h, cellular proliferation, several runs
Procedure: as §1
A431 Inhibition Assay, (Cell Proliferation).
The rest procedure was conducted in the same manner as described above for H1975 cells.

IGF-1R = biological target: T1, IGF-1R (Homo sapiens, UniProt P08069); assay: IGF-1R inhibition assay (Caliper EZ Reader); type: biochemical; conditions: enzyme assay
T1 construct: purchased CARNA BIOSCIENCE 08-141
Procedure: (§7) Test compound was dissolved in DMSO at 30 mM. […] 20 nL of these compounds DMSO dilutes were dispensed into a new 384-well assay plate by Echo 550. […] 15 uL of kinase assay buffer containing IGF-1R protein and substrate was transferred to assay plate and incubate at RT for 30 minutes. Kinase assay buffer supplemented with substrate peptides was employed as low control to monitor the background. 40 μM ATP was prepared in kinase assay buffer containing and 5 μL of ATP solution was added to each well to start the reaction. The assay plate was incubated at 25° C. for 180 minutes and the reaction was stopped by adding 40 μL of 0.5 M EDTA.
Phosphorylated fluorescent-tagged peptides were differentiated from non-phosphorylated peptides by separating using Caliper EZ Reader II and the detection was directly converted to conversion ratio.

INSR = biological target: T2, INSR (Homo sapiens, UniProt P06213); assay: INSR inhibition assay (Caliper EZ Reader); type: biochemical; conditions: enzyme assay
T2 construct: purchased CARNA BIOSCIENCE 08-142
Procedure: as §7, with “INSR” for “IGF-1R”, “LM” for “μM”
The result is analyzed in the same manner of […].

T1 sequence (P08069 959-1367 limits assumed): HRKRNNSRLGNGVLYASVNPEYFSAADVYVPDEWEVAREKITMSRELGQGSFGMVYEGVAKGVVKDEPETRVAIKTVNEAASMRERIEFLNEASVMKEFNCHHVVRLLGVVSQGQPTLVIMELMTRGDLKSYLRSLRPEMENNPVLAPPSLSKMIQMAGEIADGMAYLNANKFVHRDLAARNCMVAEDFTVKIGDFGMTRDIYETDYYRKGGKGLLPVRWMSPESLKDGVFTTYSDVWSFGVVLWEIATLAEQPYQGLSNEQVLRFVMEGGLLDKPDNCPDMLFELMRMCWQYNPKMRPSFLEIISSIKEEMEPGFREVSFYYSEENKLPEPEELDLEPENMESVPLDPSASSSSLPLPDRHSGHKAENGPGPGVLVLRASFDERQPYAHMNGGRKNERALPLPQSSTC
T2 sequence (P06213 989-1382 limits assumed): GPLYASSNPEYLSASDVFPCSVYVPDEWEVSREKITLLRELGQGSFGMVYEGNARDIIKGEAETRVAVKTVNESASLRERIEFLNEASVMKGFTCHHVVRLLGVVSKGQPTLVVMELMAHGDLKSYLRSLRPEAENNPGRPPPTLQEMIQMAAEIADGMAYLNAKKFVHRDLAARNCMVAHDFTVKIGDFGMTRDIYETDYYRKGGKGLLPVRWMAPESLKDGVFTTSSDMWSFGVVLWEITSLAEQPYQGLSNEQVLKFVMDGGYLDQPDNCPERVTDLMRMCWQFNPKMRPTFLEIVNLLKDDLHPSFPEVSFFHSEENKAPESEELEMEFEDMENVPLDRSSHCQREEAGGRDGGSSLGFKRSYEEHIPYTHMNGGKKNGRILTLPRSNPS

IC50 (PC9 cells (SM); Homo sapiens, PC-9, 72 h) | IC50 (H1975 cells (DM); Homo sapiens, NCI-H1975, 72 h) | IC50 (A431 cells (WT)) | IC50 (IGF-1R) | IC50 (INSR) | IC50 (PC9 cells (SM); 72 h) | IC50 (H1975 cells (DM); 72 h) | SMILES
0.76 nM | 0.72 nM | 121 nM | 3.94 nM | 4.76 nM | – | – | C=CC(=O)Nc1cc(Nc2nccc(-c3c[nH]c4c(C(N)=O)cccc34)n2)c(OC)cc1N(C)CCN(C)C [Example 16, 3-(2-(5-Acrylamido-4-((2-(dimethylamino)ethyl)(methyl)amino)-2-methoxyphenylamino)pyrimidin-4-yl)-1H-indole-7-carboxamide]
1.92 nM | 2.35 nM | – | 23.5 nM | 19.3 nM | 1.54 nM | 2.12 nM | C=CC(=O)Nc1cc(Nc2nccc(-n3nc(N)c4ccccc43)n2)c(OC)cc1N(C)CCN(C)C [Example 20]
3.09 nM | 6.23 nM | 82.5 nM | – | – | – | – | C=CC(=O)Nc1cc(Nc2nccc(-n3nc(NC(C)=O)c4ccccc43)n2)c(OC)cc1N(C)CCN(C)C [Example 53, N-(5-(4-(3-Acetamido-1H-indazol-1-yl)pyrimidin-2-ylamino)-2-((2-(dimethylamino)ethyl)(methyl)amino)-4-methoxyphenyl) acrylamide]
1.5 nM | 2.36 nM | 1.46 nM | – | – | – | – | C=CC(=O)Nc1cc(Nc2nccc(-n3nc(Nc4ccccn4)c4ccccc43)n2)c(OC)cc1N(C)CCN(C)C [Example 58, N-(5-(4-(3-(Pyridin-2-ylamino)-1H-indazol-1-yl)pyrimidin-2-ylamino)-2-(N-(2-(dimethylamino)ethyl)-N-methylamino)-4-methoxyphenyl) acrylamide]
19.7 nM | 8.45 nM | 716 nM | – | – | – | – | C=CC(=O)Nc1cc(Nc2nccc(-n3nc(N4CCCC4)c4ccccc43)n2)c(OC)cc1N(C)CCN(C)C [Example 59, N-(5-(4-(3-(Pyrrolidin-1-yl)-1H-indazol-1-yl)pyrimidin-2-ylamino)-2-(N-(2-(dimethylamino)ethyl)-N-methylamino)-4-methoxyphenyl) acrylamide]
11.2 nM | 8.1 nM | 545 nM | – | – | – | – | C=CC(=O)Nc1cc(Nc2nccc(-n3nc(N(C)CC)c4ccccc43)n2)c(OC)cc1N(C)CCN(C)C [Example 60, N-(5-(4-(3-(N-Ethyl-N-methylamino)-1H-indazol-1-yl)pyrimidin-2-ylamino)-2-(N-(2-(dimethylamino)ethyl)-N-methylamino)-4-methoxyphenyl) acrylamide]
29.5 nM | 94 nM | 1070 nM | – | – | – | – | C=CC(=O)Nc1cc(Nc2nccc(-n3cc(-c4c[nH]nn4)c4ccccc43)n2)c(OC)cc1N(C)CCN(C)C [Example 61, N-(5-(4-(3-(1H-1,2,3-Triazol-4-yl)-1H-indol-1-yl)pyrimidin-2-ylamino)-2-(N-(2-(dimethylamino)ethyl)-N-methylamino)-4-methoxyphenyl) acrylamide]
0.94 nM | 2.24 nM | 43.9 nM | – | – | – | – | C=CC(=O)Nc1cc(Nc2nccc(-n3cc(S(=O)(=O)NC)c4ccccc43)n2)c(OC)cc1N(C)CCN(C)C [Example 62]
5.79 nM | 3.03 nM | 528 nM | – | – | – | – | C=CC(=O)Nc1cc(Nc2ncc(Cl)c(-c3cnc(NC)c(C(C)=O)c3)n2)c(OC)cc1N(C)CCN(C)C [Example 63]
5.65 nM | 7.96 nM | 426 nM | – | – | – | – | C=CC(=O)Nc1cc(Nc2nccc(-c3ccc(C(N)=O)c4[nH]ccc34)n2)c(OC)cc1N(C)CCN(C)C [Example 64, 4-(2-(5-Acrylamido-4-((2-(dimethylamino)ethyl)(methyl)amino)-2-methoxyphenylamino)pyrimidin-4-yl)-1H-indole-7-carboxamide]
6.46 nM | 4.21 nM | 121 nM | – | – | – | – | C=CC(=O)Nc1cc(Nc2nccc(-n3nc(NC4CCOC4)c4ccccc43)n2)c(OC)cc1N(C)CCN(C)C (centres unmarked) [Example 65, N-(5-(4-(3-(Tetrahydrofuran-3-ylamino)-1H-indazol-1-yl)pyrimidin-2-ylamino)-2-(N-(2-(dimethylamino)ethyl)-N-methylamino)-4-methoxyphenyl) acrylamide]
1.96 nM | 4.99 nM | 6.04 nM | – | – | – | – | C=CC(=O)Nc1cc(Nc2nccc(-n3nc(NCC4CC4)c4ccccc43)n2)c(OC)cc1N(C)CCN(C)C [Example 66, N-(5-(4-(3-(Cyclopropylmethylamino)-1H-indazol-1-yl)pyrimidin-2-ylamino)-2-((2-(dimethylamino)ethyl)(methyl)amino)-4-methoxyphenyl) acrylamide]
2.37 nM | 0.86 nM | 264 nM | – | – | – | – | C=CC(=O)Nc1cc(Nc2nccc(-c3cc(C(N)=O)c4[nH]cc(C)c4c3)n2)c(OC)cc1N(C)CCN(C)C [Example 68, 5-(2-(5-Acrylamido-4-((2-(dimethylamino)ethyl)(methyl)amino)-2-methoxyphenylamino)pyrimidin-4-yl)-3-methyl-1H-indole-7-carboxamide]
1.92 nM | 3.55 nM | 71.2 nM | – | – | – | – | C=CC(=O)Nc1cc(Nc2nccc(-n3nc(NC4CC4)c4ccccc43)n2)c(OC)cc1N(C)CCN(C)C [Example 69, N-(5-(4-(3-(cyclopropylamino)-1H-indazol-1-yl)pyrimidin-2-ylamino)-2-((2-(dimethylamino)ethyl)(methyl)amino)-4-methoxyphenyl) acrylamide]
2.27 nM | 9.11 nM | 812 nM | – | – | – | – | C=CC(=O)Nc1cc(Nc2nccc(-n3nc(N(C)C)c4ccccc43)n2)c(OC(C)C)nc1N(C)CCN(C)C [Example 70, N-(5-((4-(3-(dimethylamino)-1H-indazol-1-yl)pyrimidin-2-yl)amino)-2-((2-(dimethylamino)ethyl)(methyl)amino)-6-isopropoxypyridin-3-yl) acrylamide]
2.45 nM | 3.29 nM | 480 nM | – | – | – | – | C=CC(=O)Nc1cc(Nc2nccc(-n3nc(N(C)C)c4ccccc43)n2)c(OCC(F)F)nc1N(C)CCN(C)C [Example 71]
5.88 nM | 8.55 nM | 912 nM | – | – | – | – | C=CC(=O)Nc1cc(Nc2nccc(-n3nc(N(C)C)c4ccccc43)n2)c(OC)nc1N(C)CCN(C)C [Example 72, N-(5-((4-(3-(Dimethylamino)-1H-indazol-1-yl)pyrimidin-2-yl)amino)-2-((2-(dimethylamino)ethyl)(methyl)amino)-6-methoxypyridin-3-yl) acrylamide]
3.28 nM | 12.6 nM | 426 nM | – | – | – | – | C=CC(=O)Nc1cc(Nc2ncc(Cl)c(-n3cc(C(C)=O)c4ccccc43)n2)c(OC)cc1N(C)CCN(C)C [Example 73, N-(5-(4-(3-Acetyl-1H-indol-1-yl)-5-chloropyrimidin-2-ylamino)-2-((2-(dimethylamino)ethyl)(methyl)amino)-4-methoxyphenyl) acrylamide]
5.74 nM | 28 nM | 396 nM | – | – | – | – | C=CC(=O)Nc1cc(Nc2nccc(-n3cc(-c4ccn[nH]4)c4ccccc43)n2)c(OC)cc1N(C)CCN(C)C [Example 74, N-(5-((4-(3-(1H-Pyrazol-3-yl)-1H-indol-1-yl)pyrimidin-2-yl)amino)-2-((2-(dimethylamino)ethyl)(methyl)amino)-4-methoxyphenyl) acrylamide]
27.9 nM | 89.5 nM | 439 nM | – | – | – | – | C=CC(=O)Nc1cc(Nc2nccc(-n3cc(-c4cn[nH]c4)c4ccccc43)n2)c(OC)cc1N(C)CCN(C)C [Example 75, N-(5-((4-(3-(1H-Pyrazol-4-yl)-1H-indol-1-yl)pyrimidin-2-yl)amino)-2-((2-(dimethylamino)ethyl)(methyl)amino)-4-methoxyphenyl) acrylamide]
3.33 nM | 2.27 nM | 152 nM | – | – | – | – | C=CC(=O)Nc1cc(Nc2nccc(-n3cc(-c4ccn[nH]4)c4ncccc43)n2)c(OC)cc1N(C)CCN(C)C [Example 76, N-(5-((4-(3-(1H-Pyrazol-5-yl)-1H-pyrrolo[3,2-b]pyridin-1-yl)pyrimidin-2-yl)amino)-2-((2-(dimethylamino)ethyl)(methyl)amino)-4-methoxyphenyl) acrylamide]
